Results published in patent US20180000085A1, “USE OF PICOLINAMIDE COMPOUNDS WITH FUNGICIDAL ACTIVITY” (DOW AGROSCIENCES LLC, priority 2014, published 2018).

Tests used:
[1] = system: Zymoseptoria tritici; assay: Leaf blotch of wheat (SEPTTR) disease control on wheat seedlings; type: in vivo; design: key to SEPTTR 1DP, HV activity at 100 ppm (% control rating) / SEPTTR 3DC, HV activity at 100 ppm (% control rating) / SEPTTR disease control, 1DP / SEPTTR disease control, 3DC / SEPTTR 1DP disease control rating, HV activity / SEPTTR 3DC disease control rating, HV activity / SEPTTR 3DC, LV activity at 125.1 g/H (% Control rating) / SEPTTR 1DP, LV activity at 125.1 g/H (% Control rating) / SEPTTR 1DP disease control rating, LV activity at 125.1 g/H / SEPTTR 3DC disease control rating, LV activity at 125.1 g/H / SEPTTR 3DC disease control rating, HV activity at 100 ppm / SEPTTR 1DP disease control rating, HV activity at 100 ppm / HV activity at 100 ppm SEPTTR 3DC (disease control rating) / HV activity at 100 ppm SEPTTR 1DP (disease control rating) / LV activity at 125.1 g/H SEPTTR 1DP (disease control rating) / LV activity at 125.1 g/H SEPTTR 3DC (disease control rating): A: > 80; B: ≤ 80; C: Not Tested; D: No Activity Observed in the Reported Assay; conditions: for SEPTTR 1DP disease control rating, LV activity at 125.1 g/H / SEPTTR 3DC disease control rating, LV activity at 125.1 g/H / SEPTTR 1DP, LV activity at 125.1 g/H (% Control rating) / SEPTTR 3DC, LV activity at 125.1 g/H (% Control rating) / LV activity at 125.1 g/H SEPTTR 1DP (disease control rating) / LV activity at 125.1 g/H SEPTTR 3DC (disease control rating): low volume application; for SEPTTR 1DP disease control rating, LV activity at 125.1 g/H: 1 day protectant; for SEPTTR 3DC disease control rating, LV activity at 125.1 g/H: 3 day curative; for SEPTTR 1DP, LV activity at 125.1 g/H (% Control rating) / SEPTTR 1DP disease control rating, HV activity / LV activity at 125.1 g/H SEPTTR 1DP (disease control rating): 1 Day Protectant; for SEPTTR 3DC, LV activity at 125.1 g/H (% Control rating) / SEPTTR 3DC disease control rating, HV activity / LV activity at 125.1 g/H SEPTTR 3DC (disease control rating): 3 Day Curative; for SEPTTR 1DP disease control rating, HV activity / SEPTTR 3DC disease control rating, HV activity: HV application at 100 ppm; for SEPTTR 1DP disease control rating, HV activity / SEPTTR 3DC disease control rating, HV activity / LV activity at 125.1 g/H SEPTTR 1DP (disease control rating) / LV activity at 125.1 g/H SEPTTR 3DC (disease control rating): wheat leaf blotch
Experimental: (§1) All fungicides were evaluated using the aforementioned method for their activity vs. all target diseases, unless stated otherwise. Wheat leaf blotch and brown rust activity were also evaluated using track spray applications, in which case the fungicides were formulated as EC formulations, containing 0.1% Trycol 5941 in the spray solutions. Wheat plants (variety Yuma) were grown from seed in a greenhouse in 50% mineral soil/50% soil-less Metro mix until the first leaf was fully emerged, with 7-10 seedlings per pot. These plants were inoculated with an aqueous spore suspension of Zymoseptoria tritici either prior to or after fungicide treatments. After inoculation the plants were kept in 100% relative humidity (one day in a dark dew chamber followed by two to three days in a lighted dew chamber at 20° C.) to permit spores to germinate and infect the leaf. The plants were then transferred to a greenhouse set at 20° C. for disease to develop. When disease symptoms were fully expressed on the 1st leaves of untreated plants, infection levels were assessed on a scale of 0 to 100 percent disease severity. Percent disease control was calculated using the ratio of disease severity on treated plants relative to untreated plants.

[2] = system: Puccinia triticina; assay: Wheat brown rust (PUCCRT) disease control on wheat seedlings; type: in vivo; design: key to PUCCRT 3DC, HV activity at 100 ppm (% control rating) / PUCCRT disease control, 3DC / PUCCRT 1DP disease control rating, HV activity / PUCCRT 3DC disease control rating, HV activity / PUCCRT 3DC, LV activity at 125.1 g/H (% Control rating) / PUCCRT 1DP, LV activity at 125.1 g/H (% Control rating) / PUCCRT 3DC disease control rating, LV activity at 125.1 g/H / PUCCRT 1DP disease control rating, LV activity at 125.1 g/H / PUCCRT 3DC disease control rating, HV activity at 100 ppm / PUCCRT 1DP disease control rating, HV activity at 100 ppm / HV activity at 100 ppm PUCCRT 3DC (disease control rating) / LV activity at 125.1 g/H PUCCRT 1DP (disease control rating) / LV activity at 125.1 g/H PUCCRT 3DC (disease control rating): A: > 80; B: ≤ 80; C: Not Tested; D: No Activity Observed in the Reported Assay; conditions: for PUCCRT 1DP disease control rating, LV activity at 125.1 g/H / PUCCRT 3DC disease control rating, LV activity at 125.1 g/H / PUCCRT 1DP, LV activity at 125.1 g/H (% Control rating) / PUCCRT 3DC, LV activity at 125.1 g/H (% Control rating) / LV activity at 125.1 g/H PUCCRT 1DP (disease control rating) / LV activity at 125.1 g/H PUCCRT 3DC (disease control rating): low volume application; for PUCCRT 1DP disease control rating, LV activity at 125.1 g/H: 1 day protectant; for PUCCRT 3DC disease control rating, LV activity at 125.1 g/H: 3 day curative; for PUCCRT 1DP, LV activity at 125.1 g/H (% Control rating) / PUCCRT 1DP disease control rating, HV activity / LV activity at 125.1 g/H PUCCRT 1DP (disease control rating): 1 Day Protectant; for PUCCRT 3DC, LV activity at 125.1 g/H (% Control rating) / PUCCRT 3DC disease control rating, HV activity / LV activity at 125.1 g/H PUCCRT 3DC (disease control rating): 3 Day Curative; for PUCCRT 1DP disease control rating, HV activity / PUCCRT 3DC disease control rating, HV activity: HV application at 100 ppm; for PUCCRT 1DP disease control rating, HV activity / PUCCRT 3DC disease control rating, HV activity / LV activity at 125.1 g/H PUCCRT 1DP (disease control rating) / LV activity at 125.1 g/H PUCCRT 3DC (disease control rating): wheat brown rust
Experimental: as §1, with “plants. Example B: Evaluation of Fungicidal Activity: Wheat Brown Rust (Puccinia triticina; Synonym: Puccinia recondita f. sp. Tritici; Bayer Code PUCCRT) Wheat plants (variety Yuma) were grown from seed in a greenhouse in 50% mineral soil/50% soil-less Metro mix until the first leaf was fully emerged, with 7-10 seedlings per pot. These plants were inoculated with an aqueous spore suspension of Puccinia triticina either prior to or after fungicide treatments. […] The plants were then transferred to a greenhouse set at 24° C. for disease to develop. Fungicide formulation, application and disease assessment followed the procedures as described in the Example A.” for “plants.”

## CCC(CC)C(Oc1ccc(Cl)cc1)C(C)OC(=O)C(CC(C)C)NC(=O)c1nccc(OC)c1OC(C)=O (stereo not shown) [Cmpd 686]
[1]
  SEPTTR 1DP disease control rating, LV activity at 125.1 g/H: D
  SEPTTR 3DC disease control rating, LV activity at 125.1 g/H: B (≤ 80)
[2]
  PUCCRT 1DP disease control rating, LV activity at 125.1 g/H: D
  PUCCRT 3DC disease control rating, LV activity at 125.1 g/H: D

## CC[C@H](CCC(C)C)[C@@H](OCC1CC1)[C@H](C)OC(=O)[C@H](C)NC(=O)c1nccc(OC)c1OC(C)=O [Cmpd 507]
[1]
  SEPTTR 1DP, LV activity at 125.1 g/H (% Control rating): B (≤ 80)
  SEPTTR 3DC, LV activity at 125.1 g/H (% Control rating): B (≤ 80)
[2]
  PUCCRT 1DP, LV activity at 125.1 g/H (% Control rating): B (≤ 80)
  PUCCRT 3DC, LV activity at 125.1 g/H (% Control rating): B (≤ 80)

## CCC(CC)[C@@H](Oc1cccc(Cl)c1)[C@H](C)OC(=O)[C@@H](NC(=O)c1nccc(OC)c1O)C(C)C [Cmpd 406]
[1]
  SEPTTR 1DP disease control rating, HV activity: B (≤ 80)
  SEPTTR 3DC disease control rating, HV activity: B (≤ 80)
[2]
  PUCCRT 1DP disease control rating, HV activity: B (≤ 80)
  PUCCRT 3DC disease control rating, HV activity: B (≤ 80)

## CCC(CC)C(Oc1cccc(F)c1)C(C)OC(=O)C(CC(C)C)NC(=O)c1nccc(OC)c1O (stereo not shown) [Cmpd 426]
[1]
  SEPTTR 1DP disease control rating, HV activity: D
  SEPTTR 3DC disease control rating, HV activity: D
[2]
  PUCCRT 1DP disease control rating, HV activity: B (≤ 80)
  PUCCRT 3DC disease control rating, HV activity: D

## CCC(CC)C(Oc1ccc(Cl)cc1)C(C)OC(=O)C(C)NC(=O)c1nccc(OC)c1OC(C)=O (stereo not shown) [Cmpd 674]
[1]
  SEPTTR 1DP disease control rating, LV activity at 125.1 g/H: A (> 80)
  SEPTTR 3DC disease control rating, LV activity at 125.1 g/H: A (> 80)
[2]
  PUCCRT 1DP disease control rating, LV activity at 125.1 g/H: A (> 80)
  PUCCRT 3DC disease control rating, LV activity at 125.1 g/H: B (≤ 80)

## COc1ccnc(C(=O)N[C@@H](C)C(=O)O[C@@H](C)[C@H](Oc2ccc(C)cc2)C(C)(C)C)c1OC(C)=O [Cmpd 1059]
[1]
  LV activity at 125.1 g/H SEPTTR 1DP (disease control rating): B (≤ 80)
  LV activity at 125.1 g/H SEPTTR 3DC (disease control rating): B (≤ 80)
[2]
  LV activity at 125.1 g/H PUCCRT 1DP (disease control rating): A (> 80)
  LV activity at 125.1 g/H PUCCRT 3DC (disease control rating): A (> 80)

## CCC(CC)C(Oc1ccc(C(F)(F)F)cc1)C(C)OC(=O)C(C)NC(=O)c1nccc(OC)c1O (stereo not shown) [Cmpd 385]
[1]
  SEPTTR 1DP disease control rating, HV activity: D
  SEPTTR 3DC disease control rating, HV activity: D
[2]
  PUCCRT 1DP disease control rating, HV activity: B (≤ 80)
  PUCCRT 3DC disease control rating, HV activity: A (> 80)

## CCC(CC)[C@@H](Oc1ccc(C(F)(F)F)cc1)[C@H](C)OC(=O)[C@H](C)NC(=O)c1nccc(OC)c1OC(C)=O [Cmpd 605]
[1]
  SEPTTR 1DP, LV activity at 125.1 g/H (% Control rating): A (> 80)
  SEPTTR 3DC, LV activity at 125.1 g/H (% Control rating): B (≤ 80)
[2]
  PUCCRT 1DP, LV activity at 125.1 g/H (% Control rating): A (> 80)
  PUCCRT 3DC, LV activity at 125.1 g/H (% Control rating): B (≤ 80)

## C=CC[C@@H](Oc1cc(F)cc(Cl)c1)[C@H](C)OC(=O)[C@H](C)NC(=O)c1nccc(OC)c1OC(C)=O [Cmpd 1080]
[1]
  LV activity at 125.1 g/H SEPTTR 1DP (disease control rating): B (≤ 80)
  LV activity at 125.1 g/H SEPTTR 3DC (disease control rating): B (≤ 80)
[2]
  LV activity at 125.1 g/H PUCCRT 1DP (disease control rating): A (> 80)
  LV activity at 125.1 g/H PUCCRT 3DC (disease control rating): B (≤ 80)

## CCC[C@@H](Oc1ccc(Cl)c(OC)c1)[C@H](C)OC(=O)[C@H](C)NC(=O)c1nccc(OC)c1OC(C)=O [Cmpd 1054]
[1]
  LV activity at 125.1 g/H SEPTTR 1DP (disease control rating): B (≤ 80)
  LV activity at 125.1 g/H SEPTTR 3DC (disease control rating): B (≤ 80)
[2]
  LV activity at 125.1 g/H PUCCRT 1DP (disease control rating): A (> 80)
  LV activity at 125.1 g/H PUCCRT 3DC (disease control rating): A (> 80)
